Laboratory results reported in patent US20130065897A1, “COMPOUNDS, PREPARATION AND USES THEREOF” (PETER MACCALLUM CANCER INSTITUTE, priority 2009, published 2013).

Tests used:
Assay type in all cases: cell-based
KHYG-1 NK cells = assay: Toxicity to KHYG-1 NK cells (trypan blue viability); settings: viable cells as percentage of total (% viability), 18 to 24 hours
Procedure: Toxicity to KHYG-1 NK Cells
KHYG-1 cells were washed and resuspended in RPMI+0.1% BSA at 4×10^5 cells/ml and 50 μl of KHYG-1 cells were dispensed to each well of a 96-well V-bottom plate. Test compounds were added to KHYG-1 cells at a concentration of 20 μM and incubated at RT for 20 minutes. 100 μL of RPMI 0.1% BSA was added and the cells were incubated for 4 hours at 37° C. then washed ×3 in RPMI+0.1% BSA. Cells were then resuspended in 200 μl of complete medium and incubated for 18 to 24 hours at 37° C. Trypan blue was added to each well and viable (clear) cells counted as a percentage of total (clear+blue) cell number (% viability).

recombinant perforin = recombinant perforin (UniProt P10820); settings: read-out: Jurkat IC50; recombinant perforin pre-incubated 30 min with compound; 51Cr-labelled Jurkat cells, 0.1% BSA, 37° C. 4 hours
Procedure: Inhibition of Perforin-Mediated Lysis of Jurkat Cells
The ability of the compounds to inhibit the lysis of nucleated (Jurkat T lymphoma) cells in the presence of 0.1% BSA, as measured by release of ^51Cr was measured. Jurkat target cells were labelled by incubation in medium with 100 μCi ^51Cr for one hour. The cells were then washed three times to remove unincorporated isotope and re-suspended at 1×10^5 cells per mL in RPMI buffer supplemented with 0.1% BSA. […] The supernatant was collected and assessed for its radioactive content on a gamma counter (Wallac Wizard 1470 automatic gamma counter). Each data point was performed in triplicate and an IC50 was calculated from the range of concentrations described to above.

[1] = tested on: KHYG-1 NK cell-mediated lysis of K562 cells; assay: Inhibition of KHYG-1 NK cell-mediated lysis of K562 cells (51Cr release); settings: K562 target cells, Effector:Target 2:1, 4 hours 37° C.
Procedure: Inhibition of KHYG-1 NK Cell-Mediated lysis of K562 Cells
KHYG-1 cells were washed and resuspended in RPMI+0.1% BSA at 4×10^5 cells/ml and 50 μl of KHYG-1 cells were dispensed to each well of a 96-well V-bottom, plate. Test compounds were added to KHYG-1 cells at various concentrations up to 20 μM and incubated at RT for 20 minutes. 1×10^6 K562 target cells were labelled with 75 μCi ^51Cr in 200 μl RPMI for 90 mins at 37° C., cells were washed as described above and resuspended in 5 ml RPMI+0.1% BSA. 50 μl of ^51Cr labelled K562 leukemia target cells were added to each well of the KHYG-1 plate (Effector:Target 2:1) and incubated at 37° C. for 4 hours. ^51Cr release was assayed using a Skatron Harvesting Press and radioactivity estimated on a Wallac Wizard 1470 Automatic Gamma counter (Turku, Finland). The percentage of specific cytotoxicity was calculated by the formula: […]
and expressed as the mean of triplicate assays +/−standard error of the mean.

Chain of recombinant perforin (P10820 whole entry): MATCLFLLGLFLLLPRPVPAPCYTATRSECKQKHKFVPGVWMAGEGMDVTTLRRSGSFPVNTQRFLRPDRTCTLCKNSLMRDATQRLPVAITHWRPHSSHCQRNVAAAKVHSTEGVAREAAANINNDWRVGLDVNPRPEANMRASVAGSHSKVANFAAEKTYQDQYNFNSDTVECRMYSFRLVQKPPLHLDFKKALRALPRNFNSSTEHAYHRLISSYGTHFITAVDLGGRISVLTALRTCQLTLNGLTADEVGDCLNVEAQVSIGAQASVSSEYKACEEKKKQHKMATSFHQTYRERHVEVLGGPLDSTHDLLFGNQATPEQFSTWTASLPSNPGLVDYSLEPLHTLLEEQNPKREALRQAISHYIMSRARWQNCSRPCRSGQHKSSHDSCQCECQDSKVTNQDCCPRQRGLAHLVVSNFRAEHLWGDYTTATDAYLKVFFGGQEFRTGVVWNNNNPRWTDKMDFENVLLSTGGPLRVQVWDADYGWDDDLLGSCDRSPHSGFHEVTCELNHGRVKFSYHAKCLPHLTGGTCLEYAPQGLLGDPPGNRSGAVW

Compound	percent viable KHYG-1 cells (trypan blue) at 20 μM (KHYG-1 NK cells) [%]	IC50 (recombinant perforin) [nM]	inhibition at 20 µM [1] [%]
CN(C)C(=O)c1ccc(-c2ccc(/C=C3/NC(=S)NC3=O)s2)cc1 [Cmpd 39, (E,Z)-N,N-Dimethyl-4-(5-((5-oxo-2-thioxoimidazolidin-4-ylidene)methyl)thiophen-2-yl)benzamide]	95	6930	89
O=C1NC(=S)N/C1=C/c1ccc(-c2ccc(C(=O)NCC(O)CO)cc2)s1 (stereo not drawn) [Cmpd 40, (E,Z)-N-(2,3-Dihydroxypropyl)-4-(5-((5-oxo-2-thioxoimidazolidin-4-ylidene)methyl)thiophen-2-yl)benzamide]	82	2440	47
CC(O)CNC(=O)c1ccc(-c2ccc(/C=C3/NC(=S)NC3=O)s2)cc1 (stereo not drawn) [Cmpd 41, (E,Z)-N-(2-Hydroxypropyl)-4-(5-((5-oxo-2-thioxoimidazolidin-4-ylidene)methyl)thiophen-2-yl)benzamide]	91	6500	60
O=C1NC(=S)N/C1=C/c1ccc(-c2ccc(C(=O)NCCCN3CCOCC3)cc2)s1 [Cmpd 43, (E,Z)-N-(3-Morpholinopropyl)-4-(5-((5-oxo-2-thioxoimidazolidin-4-ylidene)methyl)thiophen-2-yl)benzamide]	89	8130	81
O=C1NC(=S)N/C1=C/c1ccc(-c2ccc3c(c2)CNC3=O)s1 [Cmpd 46, (E,Z)-5-(5-((5-Oxo-2-thioxoimidazolidin-4-ylidene)methyl)thiophen-2-yl)isoindolin-1-one]	98	2550	70
O=C1NC(=O)/C(=C\c2ccc(-c3ccc4c(c3)CNC4=O)s2)N1 [Cmpd 47, (E,Z)-5-((5-(1-Oxoisoindolin-5-yl)thiophen-2-yl)methylene)imidazolidine-2,4-dione]	92	400	73
O=C1NC(=S)N/C1=C\c1ccc(-c2ccc3c(c2)CNC3=O)cn1 [Cmpd 51, (E,Z)-5-(6((5-Oxo-2-thioxoimidazolidin-4-ylidene)methyl)pyridin-3-yl)isoindolin-1-one]	97	630	19
CC(C)N1Cc2cc(-c3ccc(/C=C4/NC(=S)NC4=O)s3)ccc2C1=O [Cmpd 52, (E,Z)-2-Isopropyl-5-(5-((5-oxo-2-thioxoimidazolidin-4-ylidene)methyl)thiophen-2-yl)isoindolin-1-one]	92	4420	77
CCN1Cc2cc(-c3ccc(/C=C4/NC(=S)NC4=O)s3)ccc2C1=O [Cmpd 62, (E,Z)-2-Ethyl-5-(5-((5-oxo-2-thioxoimidazolidin-4-ylidene)methyl)thiophen-2-yl)isoindolin-1-one]	79	600	84
CCCN1Cc2cc(-c3ccc(/C=C4/NC(=S)NC4=O)s3)ccc2C1=O [Cmpd 63, (E,Z)-5-(5-((5-Oxo-2-thioxoimidazolidin-4-ylidene)methyl)thiophen-2-yl)-2-propylisoindolin-1-one]	94	1520	95
CCCCN1Cc2cc(-c3ccc(/C=C4/NC(=S)NC4=O)s3)ccc2C1=O [Cmpd 64, (E,Z)-2-Butyl-5-(5-((5-oxo-2-thioxoimidazolidin-4-ylidene)methyl)thiophen-2-yl)isoindolin-1-one]	94	990	96
CCOC(=O)N1Cc2cc(-c3ccc(/C=C4/NC(=S)NC4=O)s3)ccc2C1=O [Cmpd 65, (E,Z)-Ethyl 1-oxo-5-(5-((5-oxo-2-thioxoimidazolidin-4-ylidene)methyl)thiophen-2-yl)isoindoline-2-carboxylate]	96	990	72
CC(=O)N1Cc2cc(-c3ccc(/C=C4/NC(=S)NC4=O)s3)ccc2C1=O [Cmpd 66, (E,Z)-2-Acetyl-5-(5-((5-oxo-2-thioxoimidazolidin-4-ylidene)methyl)thiophen-2-yl)isoindolin-1-one]	85	930	49
CC(=O)OCCN1Cc2cc(-c3ccc(/C=C4/NC(=S)NC4=O)s3)ccc2C1=O [Cmpd 68, (E,Z)-2-(1-Oxo-5-(5-((5-oxo-2-thioxoimidazolidin-4-ylidene)methyl)thiophen-2-yl)isoindolin-2-yl)ethyl acetate]	84	1170	86
CC1c2cc(-c3ccc(/C=C4/NC(=S)NC4=O)s3)ccc2C(=O)N1C (stereo not drawn) [Cmpd 69, (E,Z)-2,3-Dimethyl-5-(5-((5-oxo-2-thioxoimidazolidin-4-ylidene)methyl)thiophen-2-yl)isoindolin-1-one]	95	3210	100
O=C1NC(=S)N/C1=C/c1ccc(-c2ccc3c(c2)CN(CCO)C3=O)s1 [Cmpd 70, (E,Z)-2-(2-Hydroxyethyl)-5-(5-((5-oxo-2-thioxoimidazolidin-4-ylidene)methyl)thiophen-2-yl)isoindolin-1-one]	77	780	38
O=C1NC(=S)N/C1=C/c1ccc(-c2ccc3c(c2)CN(CCCO)C3=O)s1 [Cmpd 71, (E,Z)-2-(3-Hydroxypropyl)-5-(5-((5-oxo-2-thioxoimidazolidin-4-ylidene)methyl)thiophen-2-yl)isoindolin-1-one]	88	530	62
O=C1NC(=S)N/C1=C/c1ccc(-c2ccc3c(c2)C(=O)NC3)s1 [Cmpd 72, (E,Z)-6-(5-((5-Oxo-2-thioxoimidazolidin-4-ylidene)methyl)thiophen-2-yl)isoindolin-1-one]	81	1380	58
CN1Cc2ccc(-c3ccc(/C=C4/NC(=S)NC4=O)s3)cc2C1=O [Cmpd 73, (E,Z)-2-Methyl-6-(5-((5-oxo-2-thioxoimidazolidin-4-ylidene)methyl)thiophen-2-yl)isoindolin-1-one]	85	1890	60
O=C1NC(=S)N/C1=C/c1ccc(-c2ccc3c(c2)CN(CCCN2CCCCC2)C3=O)s1 [Cmpd 75, (E,Z)-5-(5-((5-Oxo-2-thioxoimidazolidin-4-ylidene)methyl)thiophen-2-yl)-2-(3-(piperidin-1-yl)propyl)isoindolin-1-one]	85	11800	61
O=C1NC(=S)N/C1=C/c1ccc(-c2ccc3c(c2)CN(CCCN2CCCC2)C3=O)s1 [Cmpd 77, (E,Z)-5-(5((5-Oxo-2-thioxoimidazolidin-4-ylidene)methyl)thiophen-2-yl)-2-(3-(pyrrolidin-1-yl)propyl)isoindolin-1-one]	80	> 20000	81
